From patent publication US11206827B2, “Herbicidal composition comprising cinmethylin and specific quinolinecarboxylic acids” (BASF Agro B.V., priority 2015, dated 2021)

Experiments:
Type in all cases: in vivo
Settings in all cases: solo application, 20 DAT
Digitaria sanguinalis = experiment: Greenhouse pre-emergence herbicidal activity, DIGSA
Experimental: (§1) The test plants have been seeded, separately for each species, in plastic containers in sandy loamy soil containing 5% of organic matter.
(§2) The containers were irrigated gently to promote germination and growth and subsequently covered with transparent plastic hoods until the plants had rooted.
(§3) The plants have been cultivated due to their individual requirements at 10-25° C. and 20-35° C. The plants were irrigated due to their necessity.
(§4) The racemic mixture (±)-2-exo-(2-Methylbenzyloxy)-1-methyl-4-isopropyl-7-oxabicyclo[2.2.1]heptane was used as herbicide A and formulated as emulsifiable concentrates with an active ingredient concentration of 50 g/l, 100 g/l or 750 g/l respectively.
(§5) Quinmerac (herbicide B.2) was used as a wettable powder (WP) formulation having an active ingredient concentration of 50%.
(§6) In the following experiments, the herbicidal activity for the individual herbicidal compositions (solo and mixture applications) was assessed 20 days after treatment (DAT).
(§7) The evaluation for the damage on undesired weeds caused by the chemical compositions was carried out using a scale from 0 to 100%, compared to the untreated control plants. Here, 0 means no damage and 100 means complete destruction of the plants.
(§8) The plants used in the greenhouse experiments belonged to the following species:
(§9) where X=effect in percent using herbicide A at an application rate a; • Y=effect in percent using herbicide B at application rate b; • E=expected effect (in %) of herbicide A+ herbicide B at application rates a+b.
(§10) The value E corresponds to the effect (plant damage or injury) which is to be expected if the activity of the individual compounds is additive. If the observed effect is higher than the value E calculated according to the Colby equation, a synergistic effect is present.
(§11) Table 1 below relates to the herbicidal activity, in greenhouse trials, of the individual actives and the combinations applied at different rates and ratios, in pre-emergence application at 20 days after treatment (DAT).

Lolium multiflorum = experiment: Greenhouse pre-emergence herbicidal activity, LOLMU
Experimental: as §1, §2, §3, §4, §5, §6, §7, §8, §9, §10, §11

Sorghum halepense = experiment: Greenhouse pre-emergence herbicidal activity, SORHA
Experimental: as §1, §2, §3, §4, §5, §6, §7, §8, §9, §10, §11

Papaver rhoeas = experiment: Greenhouse pre-emergence herbicidal activity, PAPRH
Experimental: as §1, §2, §3, §4, §5
(§12) In the following experiments, the herbicidal activity for the individual herbicidal compositions (solo and mixture applications) was assessed 20 days after treatment (DAT). […]
(§13) The value E corresponds to the effect (plant damage or injury) which is to be expected if the activity of the individual compounds is additive. If the observed effect is higher than the value E calculated according to the Colby equation, a synergistic effect is present. […]

Setaria viridis = experiment: Greenhouse pre-emergence herbicidal activity, SETVI
Experimental: as §1, §2, §3, §4, §5, §6, §7, §8, §9, §10, §11

Stellaria media = experiment: Greenhouse pre-emergence herbicidal activity, STEME
Experimental: as §1, §2, §3, §4, §5, §6, §7, §8, §9, §10, §11

Amaranthus retroflexus = experiment: Greenhouse pre-emergence herbicidal activity, AMARE
Experimental: as §1, §2, §3, §4, §5, §12, §13

Polygonum convolvulus = experiment: Greenhouse pre-emergence herbicidal activity, POLCO
Experimental: as §1, §2, §3, §4, §5, §6, §7, §8, §9, §10, §11

Geranium dissectum = experiment: Greenhouse pre-emergence herbicidal activity, GERDI
Experimental: as §1, §2, §3, §4, §5, §6, §7, §8, §9, §10, §11

Avena fatua = experiment: Greenhouse pre-emergence herbicidal activity, AVEFA
Experimental: as §1, §2, §3, §4, §5, §6, §7, §8, §9, §10, §11

Abutilon theophrasti = experiment: Greenhouse pre-emergence herbicidal activity, ABUTH
Experimental: as §1, §2, §3, §4, §5, §6, §7, §8, §9, §10, §11

Anthemis arvensis = experiment: Greenhouse pre-emergence herbicidal activity, ANTAR
Experimental: as §1, §2, §3, §4, §5, §12, §13

Echinochloa crus-galli = experiment: Greenhouse pre-emergence herbicidal activity, ECHCG
Experimental: as §1, §2, §3, §4, §5, §6, §7, §8, §9, §10, §11

Alopecurus myosuroides = experiment: Greenhouse pre-emergence herbicidal activity, ALOMY
Experimental: as §1, §2, §3, §4, §5, §12, §13

Cc1cnc2c(C(=O)O)c(Cl)ccc2c1 [quinmerac, 7-chloro-3-methylquinoline-8-carboxylic acid]
herbicidal activity (Digitaria sanguinalis; 31.25 g ai/ha): 0% | herbicidal activity (Digitaria sanguinalis; 62.5 g ai/ha): 0% | herbicidal activity (Digitaria sanguinalis; 125 g ai/ha): 0% | herbicidal activity (Digitaria sanguinalis; 250 g ai/ha): 0% | herbicidal activity (Lolium multiflorum; 200 g ai/ha): 25% | herbicidal activity (Lolium multiflorum; 250 g ai/ha): 0% | herbicidal activity (Sorghum halepense; 62.5 g ai/ha): 0% | herbicidal activity (Sorghum halepense; 200 g ai/ha): 25% | herbicidal activity (Papaver rhoeas; 31.25 g ai/ha): 0% | herbicidal activity (Setaria viridis; 31.25 g ai/ha): 0% | herbicidal activity (Setaria viridis; 62.5 g ai/ha): 0% | herbicidal activity (Stellaria media; 50 g ai/ha): 0% | herbicidal activity (Stellaria media; 100 g ai/ha): 0% | herbicidal activity (Amaranthus retroflexus; 250 g ai/ha): 0% | herbicidal activity (Polygonum convolvulus; 100 g ai/ha): 0% | herbicidal activity (Polygonum convolvulus; 200 g ai/ha): 0% | herbicidal activity (Geranium dissectum; 31.25 g ai/ha): 0% | herbicidal activity (Geranium dissectum; 62.5 g ai/ha): 0% | herbicidal activity (Geranium dissectum; 200 g ai/ha): 0% | herbicidal activity (Geranium dissectum; 250 g ai/ha): 50% | herbicidal activity (Avena fatua; 25 g ai/ha): 0% | herbicidal activity (Avena fatua; 50 g ai/ha): 0% | herbicidal activity (Avena fatua; 125 g ai/ha): 0% | herbicidal activity (Avena fatua; 250 g ai/ha): 0% | herbicidal activity (Abutilon theophrasti; 50 g ai/ha): 0% | herbicidal activity (Abutilon theophrasti; 200 g ai/ha): 0% | herbicidal activity (Anthemis arvensis; 250 g ai/ha): 0% | herbicidal activity (Echinochloa crus-galli; 31.25 g ai/ha): 0% | herbicidal activity (Echinochloa crus-galli; 62.5 g ai/ha): 0% | herbicidal activity (Alopecurus myosuroides; 250 g ai/ha): 0%

(±)-2-exo-(2-Methylbenzyloxy)-1-methyl-4-isopropyl-7-oxabicyclo[2.2.1]heptane [herbicide A]
herbicidal activity (Digitaria sanguinalis; 12.5 g ai/ha): 0% | herbicidal activity (Digitaria sanguinalis; 25 g ai/ha): 0% | herbicidal activity (Digitaria sanguinalis; 50 g ai/ha): 70% | herbicidal activity (Digitaria sanguinalis; 100 g ai/ha): 90% | herbicidal activity (Lolium multiflorum; 100 g ai/ha): 70% | herbicidal activity (Lolium multiflorum; 250 g ai/ha): 98% | herbicidal activity (Sorghum halepense; 25 g ai/ha): 98% | herbicidal activity (Sorghum halepense; 250 g ai/ha): 95% | herbicidal activity (Papaver rhoeas; 12.5 g ai/ha): 70% | herbicidal activity (Setaria viridis; 12.5 g ai/ha): 90% | herbicidal activity (Setaria viridis; 25 g ai/ha): 95% | herbicidal activity (Stellaria media; 62.5 g ai/ha): 0% | herbicidal activity (Stellaria media; 125 g ai/ha): 40% | herbicidal activity (Amaranthus retroflexus; 100 g ai/ha): 30% | herbicidal activity (Polygonum convolvulus; 125 g ai/ha): 0% | herbicidal activity (Polygonum convolvulus; 250 g ai/ha): 0% | herbicidal activity (Geranium dissectum; 12.5 g ai/ha): 0% | herbicidal activity (Geranium dissectum; 25 g ai/ha): 0% | herbicidal activity (Geranium dissectum; 100 g ai/ha): 95% | herbicidal activity (Geranium dissectum; 250 g ai/ha): 85% | herbicidal activity (Avena fatua; 31.25 g ai/ha): 0% | herbicidal activity (Avena fatua; 50 g ai/ha): 0% | herbicidal activity (Avena fatua; 62.5 g ai/ha): 30% | herbicidal activity (Avena fatua; 100 g ai/ha): 10% | herbicidal activity (Abutilon theophrasti; 62.5 g ai/ha): 25% | herbicidal activity (Abutilon theophrasti; 250 g ai/ha): 65% | herbicidal activity (Anthemis arvensis; 100 g ai/ha): 0% | herbicidal activity (Echinochloa crus-galli; 12.5 g ai/ha): 95% | herbicidal activity (Echinochloa crus-galli; 25 g ai/ha): 98% | herbicidal activity (Alopecurus myosuroides; 100 g ai/ha): 95%
